Measured values reported in patent US5679671A, “Amino acid derivative” (Eisai Co., Ltd., priority 1993, dated 1997).

Assays:
NEP = target: T1, NEP (Rattus norvegicus, UniProt P07861); experiment: NEP inhibition activity (Experiment C-1); assay type: biochemical; details: Table C-1
T1 sequence (P07861 1-750): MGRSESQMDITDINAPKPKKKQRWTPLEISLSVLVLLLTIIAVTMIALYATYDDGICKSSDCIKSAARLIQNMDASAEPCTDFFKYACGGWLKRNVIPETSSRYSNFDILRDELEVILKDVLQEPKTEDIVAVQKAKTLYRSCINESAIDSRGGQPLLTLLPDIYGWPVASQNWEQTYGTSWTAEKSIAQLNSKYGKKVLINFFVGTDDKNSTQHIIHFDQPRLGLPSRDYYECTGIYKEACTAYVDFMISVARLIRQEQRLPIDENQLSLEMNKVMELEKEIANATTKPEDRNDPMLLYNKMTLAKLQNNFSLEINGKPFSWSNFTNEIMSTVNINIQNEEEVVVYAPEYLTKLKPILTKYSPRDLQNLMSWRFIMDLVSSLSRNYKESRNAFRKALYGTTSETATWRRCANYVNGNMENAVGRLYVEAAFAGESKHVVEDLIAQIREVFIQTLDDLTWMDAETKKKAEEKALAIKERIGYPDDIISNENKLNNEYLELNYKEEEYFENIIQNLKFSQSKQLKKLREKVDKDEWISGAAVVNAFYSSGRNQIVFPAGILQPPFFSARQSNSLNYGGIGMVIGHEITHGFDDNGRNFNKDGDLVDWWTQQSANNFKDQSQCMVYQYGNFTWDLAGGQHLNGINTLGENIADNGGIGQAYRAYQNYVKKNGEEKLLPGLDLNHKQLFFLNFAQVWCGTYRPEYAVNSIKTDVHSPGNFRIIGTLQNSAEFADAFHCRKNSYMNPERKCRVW
Protocol: The NEP activity was determined by the following manner in accordance with the method of Orlowsky and Wilk (Purification and Specificity of a Membrane-Bound Metalloendpeptidase from Bovine Pituitaries., Marian Orlowsky and Shrwin Wilk, Biochemistry, 1981, 20, 4942-4950.).
As a substrate, benzoyl-glycyl-arginyl-arginyl-2-naphthylamide (benzoyl-Gly-Arg-Arg-2-naphthylamide (Nova Biochem, Switzerland)) was used. In the presence of an NEP enzyme preparation and excessive leucine aminopeptidase (sigma chemical Co., U.S.A.), the liberated naphthylamine was made to undergo color development with first garnet (Sigma chemical Co., U.S.A.), followed by the measurement of the absorbance at a wavelength of 540 nm.
With respect to the NEP inhibition activity, the test compound was added to the experimental system as described above in such a manner as to give the final concentrations of 1, 3, 10, 30, 100, 300 and 1000 nM, an inhibition curve was prepared, and then the concentration at which 50% inhibition was achieved was taken as IC50. As a comparative compound, [4S-[4α,7α(R*),12bβ]]-7-[(1-oxo-2-(S)-thio-3-phenyl-propyl)amino]-1,2,3,4,6,7,8,12b-octahydro-6-oxopyrido-[2,1-a][2]benzazepine-4-carboxylic acid was used.

[1] = system: 2K-1C-Goldblatt Hypertensive Rat; experiment: Hypotensive effect on 2K-1C-Goldblatt hypertensive rat, oral (Experiment C-3); assay type: in vivo, male Sprague Dawley rats
Protocol: A silver clip with a slit of 0.25 mm in width was fitted into the left renal artery of each of male Sprague Dawley rats (aged 6 to 7 weeks) and, after three weeks, rats showing a systolic blood pressure of 180 mmHg or above were employed. One to several drops of a 1N aqueous solution of sodium hydroxide were dropped into purified water and each test compound was dissolved or emulsified therein to prepare it at a dose of 5 ml/kg, followed by orally administration. After keeping the rats in an incubator at 45° C. for 5 to 10 minutes, the systolic blood pressure was measured by the indirect method of tail artery plethysmography. As a comparative compound, [4S-[4α,7α(R*),12bβ]]-7-[(1-oxo-2-(S)-thio-3-phenyl-propyl)amino[-1,2,3,4,6,7,8,12b-octahydro-6-oxo-pyrido[2,1-a][2]benzazepine-4-carboxylic acid was used.

ANP-treated SHR = experiment: Diuretic effect on ANP-treated SHR, i.v. (Experiment C-4); assay type: in vivo, Spontaneously hypertensive male rats
Protocol: 50 ng/kg/min of rat Atrial natriuretic peptide (r-ANP) was intravenously injected into Spontaneously hypertensive male rats (aged 14 to 16 weeks). When the hematogenic dynamics and the blood r-ANP level became stable 1 hour after the injection, the diuretic effect of each test compound was examined. The diuretic effect was determined by intravenously injecting the test compound and measuring an increase (% rate of change) in urinary accumulation within 20 minutes. As a comparative compound, [4S-[4α,7α(R*),12bβ]]-7-[(1-oxo-2(S)-thio-3-phenylpropyl)amino[-1,2,3,4,6,7,8,12b-octahydro-6-oxopyrido[2,1-a][2]benzazepine-4-carboxylic acid was used.

In the case of `O=C(N[C@H]1Cc2ccccc2[C@H]2CCC[C@@H](C(=O)O)N2C1=O)[C@@H](S)Cc1ccccc1` [Comp. cpd. E-1, [4S-[4α,7α(R*),12bβ]]-7-[(1-oxo-2-(S)-thio-3-phenyl-propyl)amino]-1,2,3,4,6,7,8,12b-octahydro-6-oxopyrido-[2,1-a][2]benzazepine-4-carboxylic acid, reference compound], the IC50 (NEP) is reported as 27 nM, the “Decrease (%) in blood pressure after 1-3 hrs.” value (from here on “Decrease (%) … after 1-3 hrs.”) ([1]; 3 mg/kg oral, after 1 hr) is reported as 15.4% and the “Decrease (%) in blood pressure after 6 hrs.” value (shortened to “Decrease (%) … after 6 hrs.”) ([1]; 3 mg/kg oral) is reported as 12.9%. For the same compound, the “Decrease (%) … after 1-3 hrs.” value ([1]; 10 mg/kg oral, after 1 hr) was 14.2%, the “Decrease (%) … after 6 hrs.” value ([1]; 10 mg/kg oral) was 19.1% and the “increase (% rate of change) in urinary accumulation within 20 minutes” value (from here on “increase (% rate of change)”) (ANP-treated SHR; 0.03 mg/kg i.v.) was 220%. For the same compound, the “increase (% rate of change)” value (ANP-treated SHR; 0.1 mg/kg i.v.) was 370% and the “increase (% rate of change)” value (ANP-treated SHR; 0.3 mg/kg i.v.) was 360%.

In the case of `CC[C@H](C)[C@H](S)C(=O)NC1CCc2ccccc2N(CC(=O)O)C1=O` (stereo partly drawn) [Example A-9, 1-Carboxymethyl-3-[(2S,3S)-2-mercapto-3-methylvarelylamino]-1H-[1]benzazepin-2-one], the IC50 (NEP) is reported as 12.5 nM, the “Decrease (%) … after 1-3 hrs.” value ([1]; 1 mg/kg oral, after 2 hrs) is reported as 17.3% and the “Decrease (%) … after 6 hrs.” value ([1]; 1 mg/kg oral) is reported as 20.8%.

With `CC[C@H](C)[C@H](S)C(=O)N[C@H]1CCc2ccccc2N(CC(=O)O)C1=O` [Example A-11, (S)-3-[(2S,3S)-2-Mercapto-3-methylvarelylamino]-1-carboxymethyl-2,3,4,5-tetrahydro-1H-[1]benzazepin-2-one] the IC50 (NEP) was 6.2 nM, the “increase (% rate of change)” value (ANP-treated SHR; 0.01 mg/kg i.v.) was 220% and the “increase (% rate of change)” value (ANP-treated SHR; 0.03 mg/kg i.v.) was 390%. The “increase (% rate of change)” value (ANP-treated SHR; 0.1 mg/kg i.v.) was 460%.

In the case of `CC[C@H](C)[C@H](S)C(=O)N[C@H]1CCC[C@H]2SC[C@@H](C(=O)O)N2C1=O` [Example C-8, [3R-[3α,6α,(S*),9aβ]]-6-[[(2S,3S)-3-methyl-1-oxo-2-thiopentyl]amino]-octahydro-5-oxothiazol[3,2-a]-azepine-3-carboxylic acid], the IC50 (NEP) is reported as 13.4 nM, the “Decrease (%) … after 1-3 hrs.” value ([1]; 1 mg/kg oral, after 2 hrs) is reported as 28.4% and the “Decrease (%) … after 6 hrs.” value ([1]; 1 mg/kg oral) is reported as 25.3%. For the same compound, the “increase (% rate of change)” value (ANP-treated SHR; 0.01 mg/kg i.v.) was 200%, the “increase (% rate of change)” value (ANP-treated SHR; 0.03 mg/kg i.v.) was 280% and the “increase (% rate of change)” value (ANP-treated SHR; 0.1 mg/kg i.v.) was 340%.

For `CC[C@H](C)[C@H](S)C(=O)N[C@H]1Cc2ccc(-c3ccccc3)cc2[C@H]2CCC[C@@H](C(=O)O)N2C1=O` [Example C-14, [4S-[4α,7α(R*),12bβ]]-7-[[(2S,3S)-3-Methyl-1-oxo-2-thiopentyl]amino]-6-oxo-11-phenyl-1,2,3,4,6,7,8,12b-octahydropyrido[2,1-a][2]benzazepine-4-carboxylic acid], the IC50 (NEP) was 17.8 nM, the “Decrease (%) … after 1-3 hrs.” value ([1]; 1 mg/kg oral, after 3 hrs) was 13.4% and the “Decrease (%) … after 6 hrs.” value ([1]; 1 mg/kg oral) was 12.7%. For the same compound, the “Decrease (%) … after 1-3 hrs.” value ([1]; 3 mg/kg oral, after 3 hrs) was 25.9%, the “Decrease (%) … after 6 hrs.” value ([1]; 3 mg/kg oral) was 22.2% and the “increase (% rate of change)” value (ANP-treated SHR; 0.03 mg/kg i.v.) was 240%. For the same compound, the “increase (% rate of change)” value (ANP-treated SHR; 0.1 mg/kg i.v.) was 420% and the “increase (% rate of change)” value (ANP-treated SHR; 0.3 mg/kg i.v.) was 470%.
